Assays:
[1] = biological target: fluorogenic peptide Mca-Pro-Leu-Gly-Leu-Dpa-Ala-Arg-NH2
[2] = biological target: fluorogenic peptide Dnp-Pro-Leu-Gly-Leu-Trp-Ala-D-Arg-NH2
[3] = biological target: thiopeptolide Ac-Pro-Leu-Gly-thioester-Leu-Leu-Gly-OEt
[4] = biological target: T1, human 72 kDa gelatinase catalytic domain (GCD), reconstructed 19 kDa protein lacking propeptide, C-terminal domain and fibronectin-like insert, Seq ID No: 1 (Homo sapiens, UniProt P08253, DEL214-387); test: Inhibition of GCD cleavage of thiopeptolide by amino acid derivatives; type: biochemical; details: for GCD IC50: 17.3 nM GCD, 100 μM thiopeptolide, 10 mM CaCl2, 10 μM ZnCl2, MOPS pH 7.0; for GCD Ki: derived from IC50 by Ki=IC50/(1+[substrate]/Km), substrate 100 μM, Km 134 μM
T1 construct: starting at Ala at position -2 and ending at Ile at 168; made in house; host or cells: E. coli BL21(DE3)/pLysS
T1 sequence (P08253 with tags, fused parts or gaps DEL214-387): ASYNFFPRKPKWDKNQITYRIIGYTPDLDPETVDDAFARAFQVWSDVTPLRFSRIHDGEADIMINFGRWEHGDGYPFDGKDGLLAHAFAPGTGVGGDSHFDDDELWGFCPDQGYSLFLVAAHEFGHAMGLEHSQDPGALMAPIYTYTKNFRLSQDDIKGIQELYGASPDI
Protocol: The 100 μL assay mixture typically contained 50 mM MOPS (pH 7.0), 1 mM DTNB, 100 μM thiopeptolide, 10 mM CaCl2, 10 μM ZnCl2, and the enzyme.
The compounds tested for GCD inhibition were obtained from Bachem. […] Inhibition was initially tested at inhibitor concentrations of 100 and 500 μM. […] The determinations were repeated three times.

[5] = biological target: stromelysin catalytic domain (SCD), C-terminally truncated human stromelysin, Seq ID No: 2 (Homo sapiens, UniProt P08254); details: taken from Ye Q. Z., et al., J. Med. Chem., 1994;37:206-209; cited from earlier work
Sequence of stromelysin catalytic domain (SCD), C-terminally truncated human stromelysin, Seq ID No: 2 (P08254 100-273): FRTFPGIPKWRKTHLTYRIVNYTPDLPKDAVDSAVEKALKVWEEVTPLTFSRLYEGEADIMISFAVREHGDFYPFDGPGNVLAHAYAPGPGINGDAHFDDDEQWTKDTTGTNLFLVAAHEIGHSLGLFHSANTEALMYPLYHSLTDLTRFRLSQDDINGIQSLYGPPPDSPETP

Sequence of stromelysin catalytic domain (SCD), C-terminally truncated stromelysin (enzyme) (P08254 100-273 limits assumed): as the sequence (P08254 100-273) above

Compound	GCD IC50 [4] [µM]	GCD Ki [4] [µM]	IC50 [5] [µM]	other results
human 72 kDa gelatinase catalytic domain protein (GCD), without propeptide, C-terminal domain and fibronectin-like insert (enzyme)				Catalytic efficiency kcat/Km in cleaving the fluorogenic peptide [1]: 184000 M⁻¹ s⁻¹; Catalytic efficiency kcat/Km in cleaving the fluorogenic peptide [2]: 112000 M⁻¹ s⁻¹; Catalytic efficiency kcat/Km in cleaving the thiopeptolide [3]: 119000 M⁻¹ s⁻¹
stromelysin catalytic domain (SCD), C-terminally truncated stromelysin (enzyme)				Catalytic efficiency kcat/Km in cleaving the fluorogenic peptide [1]: 10000 M⁻¹ s⁻¹; Catalytic efficiency kcat/Km in cleaving the fluorogenic peptide [2]: 13700 M⁻¹ s⁻¹; Catalytic efficiency kcat/Km in cleaving the thiopeptolide [3]: 7840 M⁻¹ s⁻¹
O=C(N[C@@H](Cc1ccc(O)cc1)C(=O)O)OCc1ccccc1 [Compound 7, Cbz-L-Tyr-OH]	10.4 ± 0.4	6.0		
O=C(N[C@H](Cc1ccc(O)cc1)C(=O)O)OCc1ccccc1 [Compound 8, Cbz-D-Tyr-OH]	> 500			
O=C(N[C@H](Cc1ccccc1)C(=O)O)OCc1ccccc1 [Compound 10, Cbz-D-Phe-OH]	100 to 500		> 500	
CC(C)(C)OC(=O)N[C@@H](Cc1c[nH]c2ccccc12)C(=O)O [Compound 5, Boc-L-Trp-OH]	57 ± 4	33		
N[C@@H](Cc1c[nH]c2ccccc12)C(=O)O [Compound 3, H-L-Trp-OH]	> 500		> 500	GCD inhibition (in words) ([4]; tested at 100 and 500 μM): not active
N[C@H](Cc1c[nH]c2ccccc12)C(=O)O [Compound 4, H-D-Trp-OH]	> 500		> 500	
CC(C)(C)OC(=O)N[C@H](Cc1c[nH]c2ccccc12)C(=O)O [Compound 6, Boc-D-Trp-OH]	> 500		100 to 500	
O=C(N[C@@H](Cc1ccccc1)C(=O)O)OCc1ccccc1 [Compound 9, Cbz-L-Phe-OH]	21 ± 1	12		
